How the values were obtained:
HisMBP-Alg44PilZ = molecular target: T1, HisMBP-Alg44PilZ (Pseudomonas aeruginosa, UniProt Q9HY69); experiment: DRaCALA competition of cold nucleotides with 32P-cdiGMP binding to HisMBP-Alg44PilZ; set-up: species or system P. aeruginosa; conditions: 1 mM cold nucleotide (400-fold molar excess over protein), 4 nM 32P-cdiGMP
T1 construct: His-MBP-Alg44PilZ was varied from 100 μM to 6 nM; made in house; host or cells: E. coli BL21(DE3)
Procedure: FIG. 2. Detection of specific protein-ligand interactions by DRaCALA. (A) DRaCALA images of interactions between purified proteins (20 μM) incubated with 500 nM ^14C-cAMP, 4 nM ^32P-ATP, or 4 nM ^32P-cdiGMP. Protein-ligand mixtures were spotted on nitrocellulose and allowed to dry prior to imaging using a Fuji FLA7100 phosphorimager. Cognate protein-nucleotide combinations are indicated by arrowheads. MBP was used as a negative control. (B) DRaCALA images of competition assays assessing the ability of 1 mM of the indicated cold nucleotides to compete with binding interactions between 4 nM ^32P-cdiGMP and 2.5 μM HisMBP-Alg44PilZ. (C) Graph of fraction bound for each sample in […] with averages indicated by a horizontal bar. NC indicates no competitor. P values were determined by a Student's t-test for significant differences when compared to the no-competitor (NC) control for three independent experiments. For total intensity of each DRaCALA spot in FIGS. 2A and 2B, see Tables 1 and 2, respectively.
Radiolabeled ligands were incubated with each of the proteins and the mixtures were spotted on nitrocellulose. After spreading by capillary action, membranes were dried and quantitated by phosphorimager. […] Each of the radiolabel signals from MBP mixtures was distributed by capillary action (FIG. 2A). […] The specificity of Alg44PilZ binding to cdiGMP was further tested by competition with excess unlabeled nucleotides (400-fold molar excess relative to the Alg44PilZ protein). Alg44PilZ binding to ^32P-cdiGMP was abolished by cdiGMP, but not by cGMP, GMP, GDP, GTP, ATP, CTP or UTP as was previously described (FIG. 2B). The FB for cdiGMP was 0.31±0.07, which was reversed by competition with unlabeled cdiGMP to the background level of 0.04±0.01 (FIG. 2C).
(§1) Protein or whole cell lysates in 1× cdiGMP binding buffer (20 μl) was mixed with 4 nM of radiolabeled nucleotide and allowed to incubate for 10 minutes at room temperature. Radiolabeled nucleotide was competed away by cold nucleotides in concentrations and for times indicated. Purified proteins were tested in technical replicates. Whole cell lysates in FIG. 4 and FIG. 12 were tested in biological triplicates. Whole cell lysates in FIG. 5 were tested in technical replicates. These mixtures were pipetted (2.5-5 μl) onto dry, untreated nitrocellulose (GE Healthcare) in triplicate and allowed to dry completely before quantification. An FLA7100 Fujifilm Life Science Phosphorimager was used to detect luminescence following a 5-minute exposure of blotted nitrocellulose to phosphorimager film. Data was quantified using Fujifilm Multi Gauge software v3.0.

E. coli CRP = molecular target: T2, E. coli CRP (Escherichia coli, UniProt P0ACJ8); experiment: DRaCALA binding of radiolabeled nucleotides to purified CRP; conditions: 20 μM purified protein; 500 nM 14C-cAMP, 4 nM 32P-ATP or 4 nM 32P-cdiGMP
T2 construct: His; made in house
Procedure: (§2) Radiolabeled ligands were incubated with each of the proteins and the mixtures were spotted on nitrocellulose. After spreading by capillary action, membranes were dried and quantitated by phosphorimager. […] The specificity of Alg44PilZ binding to cdiGMP was further tested by competition with excess unlabeled nucleotides (400-fold molar excess relative to the Alg44PilZ protein).
as §1

[1] = molecular target: T3, P. aeruginosa Alg44PilZ (His-MBP-Alg44PilZ) (Pseudomonas aeruginosa, UniProt Q9HY69); experiment: biochemical; assay type: binding; conditions: 20 μM purified protein; 500 nM 14C-cAMP, 4 nM 32P-ATP or 4 nM 32P-cdiGMP
T3 construct: His-MBP-Alg44PilZ was varied from 100 μM to 6 nM; made in house; host or cells: E. coli BL21(DE3)
Text: DRaCALA exploits the ability of nitrocellulose membranes to preferentially sequester proteins over small molecule ligands. When a mixture of protein and radiolabeled ligand is spotted onto a dry nitrocellulose membrane, protein and bound ligand are immobilized at the site of contact while free ligand is mobilized by capillary action with the liquid phase (FIG. 1A). DRaCALA is a rapid assay, as the capillary action can be completed in less than 5 seconds. […] Because capillary action distributes the unbound ligand throughout the mobile phase, the calculation for the fraction bound (FB) can be corrected for this background (see below for edge effects at the solvent front and annulation of the protein). Therefore, FB is defined by the equation in FIG. 1B, where Iinner is the intensity of signal in the area with protein (inner circle) and Itotal is the total signal of the entire sample (outer circle). The Iinner signal consists of both ligand bound to protein and unbound ligand that has not mobilized beyond the area of the inner circle, which we define as Ibackground. Ibackground can be calculated by subtracting the signal intensity of the Iinner from the total ligand Itotal and adjusting for the relative areas of the inner (Ainner) and outer circles (Atotal) (FIG. 1B).
as §2
Kd can be measured by altering either the protein or ligand concentrations in titration experiments; since DRaCALA detects only the ligand mobility, ligand concentrations can be always held constant. […] Since the assay is completed in less than 5 seconds, DRaCALA can also be used to determine the koff for those protein-ligand complexes with slower off rates. koff was determined for cdiGMP and Alg44PilZ by spotting at the indicated time points after the addition of 1 mM unlabeled cdiGMP to a pre-incubated mixture of Alg44PilZ and ^32P-cdiGMP (FIG. 3C). […] Both edge and annulation effects are explained in FIG. 8. The edge effect is due to evaporation of the solvent during the time of the experiment, and is dependent on the humidity of the local environment around the nitrocellulose support. The evaporation results in a smaller total area (Atotal observed in FIG. 8A) and leads to an increased value in the calculated Ibackground. As a secondary correction for the edge effect, the fraction bound determined for spotted ligand in the absence of protein can be subtracted from all samples in parallel (FIG. 8B).

E. coli NtrB = E. coli NtrB (Escherichia coli, UniProt P0AFB5); experiment: DRaCALA binding of radiolabeled nucleotides to purified NtrB; conditions: 20 μM purified protein; 500 nM 14C-cAMP, 4 nM 32P-ATP or 4 nM 32P-cdiGMP
Procedure: as §2, §1

T1 sequence (Q9HY69 16-116): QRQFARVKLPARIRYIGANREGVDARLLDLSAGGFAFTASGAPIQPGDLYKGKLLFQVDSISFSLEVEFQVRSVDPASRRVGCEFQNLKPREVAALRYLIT
T3 sequence (Q9HY69 16-116): as above
T2 sequence (P0ACJ8 whole entry): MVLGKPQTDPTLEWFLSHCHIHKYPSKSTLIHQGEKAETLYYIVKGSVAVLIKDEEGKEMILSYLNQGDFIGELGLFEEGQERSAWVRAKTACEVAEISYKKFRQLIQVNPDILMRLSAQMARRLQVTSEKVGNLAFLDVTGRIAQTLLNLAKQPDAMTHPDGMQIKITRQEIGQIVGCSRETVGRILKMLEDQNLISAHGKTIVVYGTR
Chain of E. coli NtrB (P0AFB5 whole entry): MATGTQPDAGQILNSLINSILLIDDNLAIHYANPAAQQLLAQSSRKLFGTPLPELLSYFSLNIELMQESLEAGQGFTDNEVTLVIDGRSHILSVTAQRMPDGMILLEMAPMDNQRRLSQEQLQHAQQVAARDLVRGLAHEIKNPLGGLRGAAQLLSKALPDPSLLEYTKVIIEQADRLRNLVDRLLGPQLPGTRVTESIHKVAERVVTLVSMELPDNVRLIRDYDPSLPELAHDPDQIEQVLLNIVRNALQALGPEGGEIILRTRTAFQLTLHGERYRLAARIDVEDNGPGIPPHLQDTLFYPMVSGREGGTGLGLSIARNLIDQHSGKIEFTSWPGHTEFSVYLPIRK

| SMILES | Alg44PilZ binding to 32P-cdiGMP abolished by unlabeled nucleotide (HisMBP-Alg44PilZ) | binding to CRP (sequestration of radiolabel signal) (E. coli CRP) | binding to Alg44PilZ (sequestration of radiolabel signal) [1] | binding to NtrB (sequestration of radiolabel signal) (E. coli NtrB) |
| --- | --- | --- | --- | --- |
| Nc1ncnc2c1ncn2[C@@H]1O[C@H](COP(=O)(O)OP(=O)(O)OP(=O)(O)O)[C@@H](O)[C@H]1O [ATP] | not | did not bind | not | bound |
| Nc1ccn([C@@H]2O[C@H](COP(=O)(O)OP(=O)(O)OP(=O)(O)O)[C@@H](O)[C@H]2O)c(=O)n1 [CTP] | not |  |  |  |
| Nc1nc2c(ncn2[C@@H]2O[C@H](COP(=O)(O)OP(=O)(O)O)[C@@H](O)[C@H]2O)c(=O)[nH]1 [GDP] | not |  |  |  |
| Nc1nc2c(ncn2[C@@H]2O[C@H](COP(=O)(O)O)[C@@H](O)[C@H]2O)c(=O)[nH]1 [GMP] | not |  |  |  |
| Nc1nc2c(ncn2[C@@H]2O[C@H](COP(=O)(O)OP(=O)(O)OP(=O)(O)O)[C@@H](O)[C@H]2O)c(=O)[nH]1 [GTP] | not |  |  |  |
| O=c1ccn([C@@H]2O[C@H](COP(=O)(O)OP(=O)(O)OP(=O)(O)O)[C@@H](O)[C@H]2O)c(=O)[nH]1 [UTP] | not |  |  |  |
| Nc1nc2c(ncn2[C@@H]2O[C@@H]3COP(=O)(O)O[C@H]3[C@H]2O)c(=O)[nH]1 [cGMP] | not |  |  |  |

— patent US20130337579A1, “Methods for Determining Protein Ligand Binding” (UNIVERSITY OF MARYLAND, COLLEGE PARK, priority 2010, published 2013)
